Reference: the supplement of paper PMC10307832

Key:
Test in all cases: relative viability (nuclei count vs DMSO), 5 days (fraction); higher = more cells survive
[1] = test system: EKVX
Method in brief: (§1)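 Cells from lung cancer lines were seeded into 1536-well plates and, one day later, dosed by pin tool. Treatments were either a single drug or a fixed dose of an anchor drug with five library-drug doses (not always all listed) in √10 steps. After 5 days, nuclei were stained in a one-step fixation (final 0.05% Triton X-100, 1% formaldehyde, 1 ug/ml Hoechst) and counted on 4× images, and relative viability is the treated-to-vehicle nuclei ratio, as the median of duplicate plates.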

[2] = test system: HCC-827
Method in brief: as §1

[3] = test system: PC-3 [JPC-3]
Method in brief: as §1

[4] = test system: NCI-H661
Method in brief: as §1

[5] = test system: NCI-H1650
Method in brief: as §1

[6] = test system: NCI-H1975
Method in brief: as §1

[7] = test system: PC-14
Method in brief: as §1

[8] = test system: LK-2
Method in brief: as §1

[9] = test system: RERF-LC-KJ
Method in brief: as §1

[10] = test system: H3255
Method in brief: as §1

[11] = test system: NCI-H1355
Method in brief: as §1

[12] = test system: NCI-H2405
Method in brief: as §1

[13] = test system: NCI-H2342
Method in brief: as §1

[14] = test system: NCI-H2228
Method in brief: as §1

[15] = test system: CAL-12T
Method in brief: as §1

[16] = test system: NCI-H520
Method in brief: as §1

[17] = test system: HCC-15
Method in brief: as §1

[18] = test system: NCI-H1734
Method in brief: as §1

[19] = test system: NCI-H1755
Method in brief: as §1

[20] = test system: NCI-H322M
Method in brief: as §1

[21] = test system: LCLC-97TM1
Method in brief: as §1

Compound: O=c1cc(N2CCOCC2)oc2c(-c3cccc4c3sc3ccccc34)cccc12 + O=C(c1cc(Cc2n[nH]c(=O)c3ccccc23)ccc1F)N1CCN(C(=O)C2CC2)CC1 [Olaparib] (partner 8 µM)
- relative viability ([1]; first compound 0.01 µM): 0.769
- relative viability ([1]; first compound 0.03162 µM): 0.807
- relative viability ([1]; first compound 0.1 µM): 1.03
- relative viability ([1]; first compound 0.3162 µM): 0.851
- relative viability ([1]; first compound 1 µM): 0.891
- relative viability ([2]; first compound 0.01 µM): 0.695
- relative viability ([2]; first compound 0.03162 µM): 0.609
- relative viability ([2]; first compound 0.1 µM): 0.623
- relative viability ([2]; first compound 0.3162 µM): 0.641
- relative viability ([2]; first compound 1 µM): 0.642
- relative viability ([3]; first compound 0.01 µM): 1.07
- relative viability ([3]; first compound 0.03162 µM): 1.11
- relative viability ([3]; first compound 0.1 µM): 1.15
- relative viability ([3]; first compound 0.3162 µM): 1.14
- relative viability ([3]; first compound 1 µM): 1.09
- relative viability ([4]; first compound 0.01 µM): 0.744
- relative viability ([4]; first compound 0.03162 µM): 0.725
- relative viability ([4]; first compound 0.1 µM): 0.709
- relative viability ([4]; first compound 0.3162 µM): 0.732
- relative viability ([4]; first compound 1 µM): 0.721
- relative viability ([5]; first compound 0.01 µM): 0.667
- relative viability ([5]; first compound 0.03162 µM): 0.752
- relative viability ([5]; first compound 0.1 µM): 0.94
- relative viability ([5]; first compound 0.3162 µM): 0.739
- relative viability ([5]; first compound 1 µM): 0.624
- relative viability ([6]; first compound 0.01 µM): 0.834
- relative viability ([6]; first compound 0.03162 µM): 0.785
- relative viability ([6]; first compound 0.1 µM): 0.915
- relative viability ([6]; first compound 0.3162 µM): 0.82
- relative viability ([6]; first compound 1 µM): 0.809
- relative viability ([7]; first compound 0.01 µM): 0.285
- relative viability ([7]; first compound 0.03162 µM): 0.21
- relative viability ([7]; first compound 0.1 µM): 0.325
- relative viability ([7]; first compound 0.3162 µM): 0.282
- relative viability ([7]; first compound 1 µM): 0.269
- relative viability ([8]; first compound 0.01 µM): 0.802
- relative viability ([8]; first compound 0.03162 µM): 0.554
- relative viability ([8]; first compound 0.1 µM): 0.847
- relative viability ([8]; first compound 0.3162 µM): 0.722
- relative viability ([8]; first compound 1 µM): 0.737
- relative viability ([9]; first compound 0.01 µM): 1.03
- relative viability ([9]; first compound 0.03162 µM): 0.979
- relative viability ([9]; first compound 0.1 µM): 0.965
- relative viability ([9]; first compound 0.3162 µM): 0.703
- relative viability ([9]; first compound 1 µM): 0.893
- relative viability ([10]; first compound 0.01 µM): 0.544
- relative viability ([10]; first compound 0.03162 µM): 0.517
- relative viability ([10]; first compound 0.1 µM): 0.567
- relative viability ([10]; first compound 0.3162 µM): 0.512
- relative viability ([10]; first compound 1 µM): 0.53
- relative viability ([11]; first compound 0.01 µM): 0.712
- relative viability ([11]; first compound 0.03162 µM): 0.675
- relative viability ([11]; first compound 0.1 µM): 0.711
- relative viability ([11]; first compound 0.3162 µM): 0.709
- relative viability ([11]; first compound 1 µM): 0.743
- relative viability ([12]; first compound 0.01 µM): 0.952
- relative viability ([12]; first compound 0.03162 µM): 0.912
- relative viability ([12]; first compound 0.1 µM): 0.945
- relative viability ([12]; first compound 0.3162 µM): 0.832
- relative viability ([12]; first compound 1 µM): 0.93
- relative viability ([13]; first compound 0.01 µM): 0.418
- relative viability ([13]; first compound 0.03162 µM): 0.434
- relative viability ([13]; first compound 0.1 µM): 0.438
- relative viability ([13]; first compound 0.3162 µM): 0.457
- relative viability ([13]; first compound 1 µM): 0.428
- relative viability ([14]; first compound 0.01 µM): 0.646
- relative viability ([14]; first compound 0.03162 µM): 0.654
- relative viability ([14]; first compound 0.1 µM): 0.891
- relative viability ([14]; first compound 0.3162 µM): 0.803
- relative viability ([14]; first compound 1 µM): 0.571
- relative viability ([15]; first compound 0.01 µM): 0.682
- relative viability ([15]; first compound 0.03162 µM): 0.707
- relative viability ([15]; first compound 0.1 µM): 0.75
- relative viability ([15]; first compound 0.3162 µM): 0.693
- relative viability ([15]; first compound 1 µM): 0.744
- relative viability ([16]; first compound 0.01 µM): 0.42
- relative viability ([16]; first compound 0.03162 µM): 0.406
- relative viability ([16]; first compound 0.1 µM): 0.366
- relative viability ([16]; first compound 0.3162 µM): 0.351
- relative viability ([16]; first compound 1 µM): 0.338
- relative viability ([17]; first compound 0.01 µM): 0.692
- relative viability ([17]; first compound 0.03162 µM): 0.742
- relative viability ([17]; first compound 0.1 µM): 0.775
- relative viability ([17]; first compound 0.3162 µM): 0.74
- relative viability ([17]; first compound 1 µM): 0.735
- relative viability ([18]; first compound 0.01 µM): 0.686
- relative viability ([18]; first compound 0.03162 µM): 0.638
- relative viability ([18]; first compound 0.1 µM): 0.685
- relative viability ([18]; first compound 0.3162 µM): 0.638
- relative viability ([18]; first compound 1 µM): 0.652
- relative viability ([19]; first compound 0.01 µM): 0.896
- relative viability ([19]; first compound 0.03162 µM): 0.891
- relative viability ([19]; first compound 0.1 µM): 0.869
- relative viability ([19]; first compound 0.3162 µM): 0.848
- relative viability ([19]; first compound 1 µM): 0.883
- relative viability ([20]; first compound 0.01 µM): 0.688
- relative viability ([20]; first compound 0.03162 µM): 0.827
- relative viability ([20]; first compound 0.3162 µM): 0.73
- relative viability ([20]; first compound 1 µM): 0.725
- relative viability ([21]; first compound 0.01 µM): 0.316
- relative viability ([21]; first compound 0.03162 µM): 0.374
- relative viability ([21]; first compound 0.1 µM): 0.502
- relative viability ([21]; first compound 0.3162 µM): 0.269
- relative viability ([21]; first compound 1 µM): 0.432
